System: human maximum recommended daily dose, FDA database
Assay: DSSTox (FDAMDD) FDA Maximum (Recommended) Daily Dose Database
Details: hits give low values
Method in brief: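 MRDD values come from clinical trials with daily oral dosing, usually for 3–12 months, for the average adult, in mg/day converted to mg/kg-bw/day assuming 60 kg. Antineoplastic mg/m2 doses are divided by 37. Activity score maps log10(1/MRDD mmol) onto 1–100.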

[1] = TherapeuticCategory: analgesic, antipyretic, anti inflammatory
[2] = TherapeuticCategory: antibacterial
[3] = TherapeuticCategory: anxiolytic
[4] = TherapeuticCategory: narcotic analgesic
[5] = TherapeuticCategory: antihypertensive
[6] = TherapeuticCategory: cardiotonic

## CCCCN(CCCC)CCNc1nc(-c2ccccc2)no1
TherapeuticCategory: peripheral vasodilator
  maximum recommended daily dose (mmol/kg-bw/day): 0.0126

## O=C(O)CCCc1ccc(N(CCCl)CCCl)cc1
TherapeuticCategory: antineoplastic
  maximum recommended daily dose (mmol/kg-bw/day): 0.000657

## CC(C)CC1Nc2cc(Cl)c(S(N)(=O)=O)cc2S(=O)(=O)N1 (configuration not stated)
TherapeuticCategory: diuretic, antihypertensive
  maximum recommended daily dose (mmol/kg-bw/day): 0.000707

## Cc1oncc1C(=O)Nc1ccc(C(F)(F)F)cc1
TherapeuticCategory: antirheuematic, immunosuppressant
  maximum recommended daily dose (mmol/kg-bw/day): 0.00123

## CCCCC(C(=O)O)C(=O)N(Nc1ccccc1)c1ccccc1 (configuration not stated)
[1]
  maximum recommended daily dose (mmol/kg-bw/day): 0.0337

## OC[C@@H](O)CN1CCN(c2ccccc2)CC1
TherapeuticCategory: antitussive
  maximum recommended daily dose (mmol/kg-bw/day): 0.0127

## CC(C)(CO)[C@@H](O)C(=O)NCCC(=O)O
TherapeuticCategory: vitamin
  maximum recommended daily dose (mmol/kg-bw/day): 0.000534

## CC(=O)Nc1ccc(O)cc1
TherapeuticCategory: analgesic, antipyretic
  maximum recommended daily dose (mmol/kg-bw/day): 0.331

## CCn1cc(C(=O)O)c(=O)c2cnc(N3CCNCC3)nc21
[2]
  maximum recommended daily dose (mmol/kg-bw/day): 0.0438

## CN1CCC(=C2c3ccccc3C=Cc3ccccc32)CC1
TherapeuticCategory: antihistaminic, antipruritic
  maximum recommended daily dose (mmol/kg-bw/day): 0.00174

## CCN(CC)C(=O)Nc1ccc(OCC(O)CNC(C)(C)C)c(C(C)=O)c1 (configuration not stated)
TherapeuticCategory: antihypertensive, antianginal
  maximum recommended daily dose (mmol/kg-bw/day): 0.0176

## CN1C(=O)NC(=O)C(C)(C2=CCCCC2)C1=O (configuration not stated)
TherapeuticCategory: sedative, hypnotic, anesthetic
  maximum recommended daily dose (mmol/kg-bw/day): 0.0353

## Cc1nnc2n1-c1ccc(Cl)cc1C(c1ccccc1)=NC2
[3]
  maximum recommended daily dose (mmol/kg-bw/day): 0.000541

## O=C1NC(=O)C(c2ccccc2)(c2ccccc2)N1
TherapeuticCategory: anticonvulsant, antiepileptic
  maximum recommended daily dose (mmol/kg-bw/day): 0.0198

## CN1CC[C@]23CCCC[C@H]2[C@H]1Cc1ccc(O)cc13
[4]
  maximum recommended daily dose (mmol/kg-bw/day): 0.000583

## NNc1nnc(NN)c2ccccc12
[5]
  maximum recommended daily dose (mmol/kg-bw/day): 0.0175

## CNC[C@H](O)c1ccc(O)c(O)c1
TherapeuticCategory: adrenergic, bronchodilator, mydriatic, antiglaucoma
  maximum recommended daily dose (mmol/kg-bw/day): 9.12e-05

## CS(=O)(=O)c1ccc([C@@H](O)[C@@H](COC(=O)CN)NC(=O)C(Cl)Cl)cc1
[2]
  maximum recommended daily dose (mmol/kg-bw/day): 0.111

## CC(CN(C)C)CN1c2ccccc2S(=O)(=O)c2ccccc21 (configuration not stated)
TherapeuticCategory: antihistaminic
  maximum recommended daily dose (mmol/kg-bw/day): 0.00202

## CC[C@H](CC[C@@H](C)[C@H]1CC[C@H]2[C@@H]3CC=C4C[C@@H](O)CC[C@]4(C)[C@H]3CC[C@]12C)C(C)C
TherapeuticCategory: anticholinesteremic
  maximum recommended daily dose (mmol/kg-bw/day): 0.241

## C[C@]1(O)CC[C@H]2[C@@H]3CCC4=CC(=O)CC[C@@H]4[C@H]3CC[C@@]21C
TherapeuticCategory: androgen
  maximum recommended daily dose (mmol/kg-bw/day): 0.00173

## CC(C)(C)NC[C@H](O)COc1ccccc1C1CCCC1
TherapeuticCategory: antihypertensive, antianginal, antiarrhythmic
  maximum recommended daily dose (mmol/kg-bw/day): 0.00456

## CC(=O)Nc1ccc(OC(=O)c2ccccc2OC(C)=O)cc1
[1]
  maximum recommended daily dose (mmol/kg-bw/day): 0.425

## CCC(=O)OCC(=O)[C@@]1(OC(=O)CC)[C@@H](C)C[C@H]2[C@@H]3CCC4=CC(=O)C=C[C@]4(C)[C@@]3(F)[C@@H](O)C[C@@]21C
TherapeuticCategory: glucocorticoid
  maximum recommended daily dose (mmol/kg-bw/day): 0.000297

## C[C@H]1[C@H](NC(=O)/C(=N\OC(C)(C)C(=O)O)c2csc(N)n2)C(=O)N1S(=O)(=O)O
[2]
  maximum recommended daily dose (mmol/kg-bw/day): 0.305

## CCOc1ccccc1OCCN[C@H](C)Cc1ccc(OC)c(S(N)(=O)=O)c1
TherapeuticCategory: alpha 1A androceptor antagonist
  maximum recommended daily dose (mmol/kg-bw/day): 3.26e-05

## CCC1(CC)C(=O)NC(=O)NC1=O
TherapeuticCategory: sedative, hypnotic
  maximum recommended daily dose (mmol/kg-bw/day): 0.0543

## O=P(O)(O)OC(CO)CO
TherapeuticCategory: none
  maximum recommended daily dose (mmol/kg-bw/day): 0.388

## COc1c2occc2cc2ccc(=O)oc12
TherapeuticCategory: pigmentation agent
  maximum recommended daily dose (mmol/kg-bw/day): 0.00278

## Cc1ccccc1C(OCCN(C)C)c1ccccc1 (configuration not stated)
TherapeuticCategory: skeletal muscle relaxant, antihistiminic
  maximum recommended daily dose (mmol/kg-bw/day): 0.0248

## C[C@H](N)Cc1ccccc1
TherapeuticCategory: CNS stimulant, anorexic
  maximum recommended daily dose (mmol/kg-bw/day): 0.0074

## COc1cc([C@@H]2Oc3cc([C@H]4Oc5cc(O)cc(O)c5C(=O)[C@@H]4O)ccc3O[C@H]2CO)ccc1O
TherapeuticCategory: treatment of liver disfunction
  maximum recommended daily dose (mmol/kg-bw/day): 0.0145

## CCC(C)CON=O (configuration not stated)
TherapeuticCategory: none
  maximum recommended daily dose (mmol/kg-bw/day): 0.0427

## COc1cc(Cc2cnc(N)nc2N)cc(OC)c1OC
[2]
  maximum recommended daily dose (mmol/kg-bw/day): 0.0184

## COC12CC[C@@]3(C[C@@H]1[C@](C)(O)C(C)(C)C)[C@H]1Cc4ccc(O)c5c4[C@@]3(CCN1CC1CC1)[C@H]2O5
[4]
  maximum recommended daily dose (mmol/kg-bw/day): 0.00114

## CCCCC(CC)COC(=O)CC(C(=O)OCC(CC)CCCC)S(=O)(=O)O (configuration not stated)
TherapeuticCategory: stool softener
  maximum recommended daily dose (mmol/kg-bw/day): 0.0109

## Oc1c(Cl)cc(Cl)c2cccnc12
TherapeuticCategory: antiseborrhetic
  maximum recommended daily dose (mmol/kg-bw/day): 0.312

## CN(C)CCOc1ccc(/C(=C(/CCCl)c2ccccc2)c2ccccc2)cc1
TherapeuticCategory: antiestrogen, antineoplastic
  maximum recommended daily dose (mmol/kg-bw/day): 0.0082

## CC(C)CC(N(C)C)C1(c2ccc(Cl)cc2)CCC1 (configuration not stated)
TherapeuticCategory: anorexic
  maximum recommended daily dose (mmol/kg-bw/day): 0.000893

## N=C(N)c1ccc(N=NNc2ccc(C(=N)N)cc2)cc1 (tested in a mixture with another compound)
TherapeuticCategory: antiprotozoal
  maximum recommended daily dose (mmol/kg-bw/day): 0.0097

## C[C@]12CC[C@H]3[C@@H](CC[C@@]45O[C@@H]4C(O)=C(C#N)C[C@]35C)[C@@H]1CC[C@@H]2O
TherapeuticCategory: adrenocortical suppressant, treatment of breast cancer
  maximum recommended daily dose (mmol/kg-bw/day): 0.0243

## Cc1nnc(NS(=O)(=O)c2ccc(N)cc2)s1
[2]
  maximum recommended daily dose (mmol/kg-bw/day): 0.247

## CCCCNC(=O)OCC(C)(CCC)COC(N)=O (configuration not stated)
[3]
  maximum recommended daily dose (mmol/kg-bw/day): 0.182

## CC(C)NCC(O)COc1ccc(O)cc1 (configuration not stated)
[6]
  maximum recommended daily dose (mmol/kg-bw/day): 0.00148

## CCOC(=O)C1(c2ccccc2)CCN(C)CC1
[4]
  maximum recommended daily dose (mmol/kg-bw/day): 0.0606

## C[N+](C)(C)CC(=O)[O-]
TherapeuticCategory: hepatoprotectant
  maximum recommended daily dose (mmol/kg-bw/day): 0.0711

## Cc1ncc2n1-c1ccc(Cl)cc1C(c1ccccc1F)=NC2
TherapeuticCategory: anesthetic
  maximum recommended daily dose (mmol/kg-bw/day): 0.000256

## CC(C)[N+](C)(CCC(C(N)=O)(c1ccccc1)c1ccccc1)C(C)C
TherapeuticCategory: anticholinergic
  maximum recommended daily dose (mmol/kg-bw/day): 0.000472

## C[C@H]1O[C@@H](O[C@H]2[C@@H](O)C[C@H](O[C@H]3[C@@H](O)C[C@H](O[C@H]4CC[C@@]5(C)[C@H](CC[C@@H]6[C@@H]5CC[C@]5(C)[C@@H](C7=CC(=O)OC7)CC[C@]65O)C4)O[C@@H]3C)O[C@@H]2C)C[C@H](O)[C@@H]1O
[6]
  maximum recommended daily dose (mmol/kg-bw/day): 2.61e-08

## O=C(O)c1ccccc1C(=O)Nc1ccc(S(=O)(=O)Nc2nccs2)cc1
[2]
  maximum recommended daily dose (mmol/kg-bw/day): 0.496

## COc1ccc2cc1Oc1cc3c(cc1OC)CC[N+](C)(C)[C@H]3Cc1ccc(cc1)Oc1c(OC)c(OC)cc3c1[C@@H](C2)[N+](C)(C)CC3
TherapeuticCategory: skeletal muscle relaxant
  maximum recommended daily dose (mmol/kg-bw/day): 0.000441

## Nc1[nH]c(=O)ncc1F
TherapeuticCategory: antifungal
  maximum recommended daily dose (mmol/kg-bw/day): 1.16

## CCCCC(=O)N(Cc1ccc(-c2ccccc2-c2nn[nH]n2)cc1)[C@@H](C(=O)O)C(C)C
[5]
  maximum recommended daily dose (mmol/kg-bw/day): 0.0122

## CCC[N+]12[C@@H]3C[C@]45c6ccccc6N(C)[C@H]4[C@H]1C[C@H](C3[C@@H]5O)[C@H](CC)[C@H]2O (some centres not stated)
TherapeuticCategory: antiarryhthmic
  maximum recommended daily dose (mmol/kg-bw/day): 0.0036

## COCC1=C(C(=O)OC(C)OC(=O)OC(C)C)N2C(=O)[C@@H](NC(=O)/C(=N\OC)c3csc(N)n3)[C@H]2SC1 (some centres not stated)
[2]
  maximum recommended daily dose (mmol/kg-bw/day): 0.0179

## Nc1ccn([C@@H]2O[C@H](CO)[C@@H](O)C2O)c(=O)n1 (some centres not stated)
TherapeuticCategory: antineoplastic, antiviral
  maximum recommended daily dose (mmol/kg-bw/day): 0.0111

## C[C@@H]1C[C@H]2[C@@H]3CCC4=CC(=O)C=C[C@]4(C)[C@@]3(F)[C@@H](O)C[C@]2(C)[C@@]1(O)C(=O)CO
TherapeuticCategory: glucocorticoid, anti inflammatory
  maximum recommended daily dose (mmol/kg-bw/day): 0.000382

## CC(C)NCC(O)COc1ccc(COCCOC(C)C)cc1 (configuration not stated)
[5]
  maximum recommended daily dose (mmol/kg-bw/day): 0.00102

## C1CCC(C(CC2CCCCN2)C2CCCCC2)CC1 (configuration not stated)
TherapeuticCategory: vasodilator, Ca channel blocker, diuretic
  maximum recommended daily dose (mmol/kg-bw/day): 0.018

## O=C1CN(/N=C/c2ccc([N+](=O)[O-])o2)C(=O)N1
[2]
  maximum recommended daily dose (mmol/kg-bw/day): 0.028

## O=C1Nc2ccc(Cl)cc2C(c2ccccc2Cl)=NC1O (configuration not stated)
[3]
  maximum recommended daily dose (mmol/kg-bw/day): 0.00052

## CCOC(=O)Oc1c(OC)cc(C(=O)O[C@@H]2C[C@@H]3CN4CCc5c([nH]c6cc(OC)ccc56)[C@H]4C[C@@H]3[C@H](C(=O)OC)[C@H]2OC)cc1OC
[5]
  maximum recommended daily dose (mmol/kg-bw/day): 7.5e-05

## CC12C=CC(C(=O)O[C@H]3CC[C@H]4[C@@H]5CCC6=CC(=O)CC[C@@H]6[C@H]5CC[C@]34C)(CC1)CC2
TherapeuticCategory: anabolic
  maximum recommended daily dose (mmol/kg-bw/day): 0.00788

## CO[C@H]1[C@@H](O)C[C@H](O[C@H]2[C@@H](O)C[C@H](O[C@H]3[C@@H](O)C[C@H](O[C@H]4CC[C@@]5(C)[C@H](CC[C@@H]6[C@@H]5C[C@@H](O)[C@]5(C)[C@@H](C7=CC(=O)OC7)CC[C@]65O)C4)O[C@@H]3C)O[C@@H]2C)O[C@@H]1C
[6]
  maximum recommended daily dose (mmol/kg-bw/day): 8.39e-06

## C[C@]12CC[C@H]3[C@@H](CC=C4C[C@@H](O)CC[C@@]43C)[C@@H]1CC[C@@H]2O
TherapeuticCategory: anabolic
  maximum recommended daily dose (mmol/kg-bw/day): 0.00861

## Cc1ccccc1-n1c(C)nc2ccccc2c1=O
TherapeuticCategory: hypnotic, sedative
  maximum recommended daily dose (mmol/kg-bw/day): 0.02

## COc1cc(N)c(Cl)cc1C(=O)NC1CCN(CCCOc2ccc(F)cc2)CC1OC (configuration not stated)
TherapeuticCategory: peristaltic stimulant
  maximum recommended daily dose (mmol/kg-bw/day): 0.00285

## CN(C)c1ccc2nc3ccc(=[N+](C)C)cc-3sc2c1
TherapeuticCategory: antimethemoglobinemic
  maximum recommended daily dose (mmol/kg-bw/day): 0.0203

## Nc1nnc(-c2cccc(Cl)c2Cl)c(N)n1
TherapeuticCategory: anticonvulsant
  maximum recommended daily dose (mmol/kg-bw/day): 0.026

## CCOC(=O)[C@H](CCc1ccccc1)N[C@H]1CCc2ccccc2N(CC(=O)O)C1=O
TherapeuticCategory: antihypertensive, ACE inhibitor
  maximum recommended daily dose (mmol/kg-bw/day): 0.00313

## CCn1cc(C(=O)O)c(=O)c2cc(F)c(N3CCNCC3)nc21
[2]
  maximum recommended daily dose (mmol/kg-bw/day): 0.0624

## CN(C)CCCN1c2ccccc2Sc2ccc(C(F)(F)F)cc21
TherapeuticCategory: antipsychotic
  maximum recommended daily dose (mmol/kg-bw/day): 0.00709

From PubChem BioAssay AID1195 (EPA DSSTox, 2008)
